According to patent US8609151B2, “Treatment of erectile dysfunction and libido enhancement” (CSIR, priority 2006, dated 2013):
≈ marks a conversion by molar mass, not a printed value. Entries after “also recorded” stand apart in the source; their conditions may differ. Like-named read-outs stand apart in the source and are kept apart here.

What was measured:
[1] = target: T1, Phosphodiesterase 5 enzyme, partially purified from human platelets (Homo sapiens, UniProt O76074); experiment: in vitro inhibition of the phosphodiesterase 5 enzyme (MDS Pharma); format: biochemical
T1 construct: Phosphodiesterase 5 enzyme, partially purified from human platelets, was used; tissue MDS Pharma Laboratory in Taiwan (assay performed there); host or cells: human platelets
Method: Inhibition of the phosphodiesterase 5 enzyme limits the hydrolysis of cyclic Guanisine MonoPhosphate (cGMP) to acyclic Guanisine MonoPhosphate (5′GMP) and thereby increases the intracellular concentrations of cGMP which results in the relaxation of the corpus cavernosum smooth muscle. When this muscle is relaxed blood flows and fills the arteries causing the penis to erect.
The assay of the inhibition of the phosphodiesterase 5 enzyme was carried out by the MDS Pharma Laboratory in Taiwan. Phosphodiesterase 5 enzyme, partially purified from human platelets, was used. Test compounds and/or vehicles were incubated with 3.5 μg enzyme and 1 μM cGMP containing 0.01 μM [^3H]cGMP in Tris buffer at pH 7.5 for 20 minutes at 30° C. The reaction was terminated by boiling for 2 minutes and the resulting GMP was converted to guanosine by addition of 10 mg/ml snake venom nucleotidase and further incubation at 30° C. for 10 minutes. Unhydrolyzed cGMP was bound to AG1-X2 resin, and remaining [^3H]guanosine in the aqueous phase was quantitated by scintillation counting. […] Since enzyme activity could change from lot to lot, the concentration used was adjusted if necessary.

[2] = tested on: Chinese hamster ovarian cells (CHO); experiment: in vitro cytotoxicity, MTT assay; conditions: for IC50: Cricetulus griseus; for cytotoxicity against Chinese hamster ovarian cells: at the test concentrations
Method: In vitro cytotoxicity against mammalian cell line was assayed against Chinese hamster ovarian cells by the Assay Laboratory of the Department of Medicine, Division of Pharmacology, University of Cape Town, South Africa.
All samples were tested in triplicate on a single occasion. The MTT-assay was used as a calorimetric assay for cellular growth and survival, and compares well with other available assays (Mosman, Journal of Immunological Methods 65, 55-63 (1983) and Rubinstein et al., Journal of the National Cancer Institute 82, 1113-8 (1990)). The tetrazolium salt MTT was used to measure all growth and chemosensitivity.
Aqueous samples were dissolved in water and organic samples were dissolved in a methanol:water mixture (1:9) by volume. The initial concentration of stock solutions was 2 mg/ml for all samples. Samples were stored at −20° C. until use. […] Emetine was used as the positive control in all experiments. The initial concentration of emetine was 100 μg/ml, which was serially diluted in complete medium with 10-fold dilutions to give 6 concentrations, the lowest being 0.001 μg/ml. The same dilution technique was applied to all other samples with an initial concentration of 100 μg/ml to give 5 concentrations, with the lowest concentration being 0.01 μg/ml.
The 50% inhibitory concentration (IC50) values for these samples were obtained from dose-response curves, using a non-linear dose-response curve fitting analyses via GraphPad Prism v.2.01 software.

rabbit corpus cavernosum = rabbit corpus cavernosum relaxation/contraction, phenylephrine-contracted strip (MDS Pharma); format: cell-based; conditions: for Smooth Muscle relaxation (%) at 30 μM: relative to 0.3 μM sodium nitroprusside response, significant at ≧50%; for rabbit corpus cavernosum smooth muscle relaxation: isolated compounds at test concentration
Method: Rabbit corpus cavernosum relaxation/contraction was measured by the MDS Pharma Laboratory. Corpus cavernosum obtained from New Zealand-derived albino male rabbits weighing 2.5-3 kg and sacrificed by CO2 overexposure was used. A strip from the basal area of the corpus cavernosal was removed and placed under 2 g tension in a 10 ml bath containing Krebs solution at pH 7.4 at 32° C. and sub-maximal isometrically recorded tonic contraction was induced by phenylephrine (3 μM).

[3] = tested on: rabbit corpus cavernosal smooth muscle; experiment: relaxation of CaCl2 pre-contracted rabbit corpus cavernosal smooth muscle strips (University of Pretoria); format: cell-based
Method: Strips (12 mm long and 1-2 mm thick) of rabbit corpus cavernosal smooth muscle were dissected and mounted in an organ-bath chamber containing Krebs-PSS solution with the following composition: […] One end of the muscle was tied to the inside bottom of the perfusion bath and the other end to a thin wire connected to a Harvard isotonic force transducer for isotonic tension measurements. Changes in isotonic tension were recorded on a computerized calibrating program. […] This was followed by perfusion with 2 ml of high CaCl2 in Krebs-PSS (17.8 mg/ml) for muscle contraction. Base-line tension was set at the point of maximal contraction following the addition of CaCl2 into the experimental bath. The extracts to be analyzed were added after a stable contraction base-line. The same procedure was repeated for the positive control, Sildenafil. The contraction/relaxation was reported relative to Sildenafil tested at 78 ng/ml.

[4] = read-out: Phosphodiesterase 5 enzyme inhibition (%) at 10 μM, 10 μM, significant at ≧50%
[5] = read-out: Chinese hamster ovarian cell test IC50, MTT assay, triplicate, values ≦1.0 considered cytotoxic

Compound	Smooth Muscle relaxation (%) at 30 μM (rabbit corpus cavernosum)	inhibition at 10 µM [1, 4]	IC50 [2, 5]	cytotoxicity against Chinese hamster ovarian cells [2]	rabbit corpus cavernosum smooth muscle relaxation (rabbit corpus cavernosum)	other results
COc1cc2c(-c3ccc4c(c3)OCO4)c3c(c(OC)c2c(OC)c1OC)COC3=O [Compound 3, 9-(1′,3′-benzodioxol-5′-yl)-4,5,6,7-tetramethoxynaphtho[2,3-c]furan-1(3H)-one]	62%					inhibition at 10 µM ([1]; read-out: Phosphodiesterase 5 enzyme inhibition (%) at 10 μM): 11%; IC50 ([2]; read-out: Chinese hamster ovarian cell test IC50): 9 µg/mL (≈ 21.2 µM)
COc1ccc(-c2c3c(c(O)c4cc5c(cc24)OCO5)COC3=O)cc1OC [Compound 5, 9-(3′,4′-dimethoxyphenyl)-4-hydroxy-6,7-methylenedioxynaphtho[2,3-c]furan-1(3H)-one]	75%	29%	28.5 µg/mL (≈ 74.9 µM)	non-cytotoxic	observed	
COc1ccc(CC2COC(=O)/C2=C\c2ccc3c(c2)OCO3)cc1OC (stereo not drawn) [Compound 6, 3-(1′,3′-benzodioxol-5′-ylmethylene)-4-(3″,4″-dimethoxybenzyl)dihydrofuran-2(5H)-one]	71%	35%	> 100 µg/mL	non-cytotoxic; also recorded: least toxic		
COc1ccc(-c2c3c(c(OC)c4cc5c(cc24)OCO5)C(=O)OC3)cc1OC [Compound 7, 4-(3′,4′-dimethoxyphenyl)-9-methoxy-6,7-methylenedioxynaphtho[2,3-c]furan-1(3H)-one]	57%			non-cytotoxic; also recorded: least toxic	observed	Phosphodiesterase 5 enzyme inhibition (%) at 10 μM ([1]; 10 μM, significant at ≧50%): 53%; phosphodiesterase 5 enzyme inhibition ([1]; isolated compounds at test concentration): Significant inhibition; Chinese hamster ovarian cell test IC50 ([2]; MTT assay, triplicate, values ≦1.0 considered cytotoxic): >100 µg/mL
CC[C@H]1CN2CCc3cc(OC)c(OC)cc3[C@@H]2C[C@@H]1C[C@H]1NCCc2cc(OC)c(OC)cc21 [Emetine, reference compound]			0.04 µg/mL (≈ 0.0832 µM)			
CCCc1nn(C)c2c(=O)[nH]c(-c3cc(S(=O)(=O)N4CCN(C)CC4)ccc3OCC)nc12 [Viagra]						relaxation ([3]; at […] 10^−2 μg/ml, footnote of Table 14, same figure as the Table 13 footnote): 100%; smooth muscle relaxation ([3]; at […] 10^−5 mg/ml, positive control): Viagra showed 100% smooth muscle relaxation at 1.8 × 10^−5 mg/ml
